Measurements: patent US20250161308A1, “Methods of Treating Covid-Related Disorders” (priority 2022, published 2025)
Like-named read-outs stand apart in the source and are kept apart here.

Assays:
[1] = test system: scopolamine-induced spatial memory deficits in rats; experiment: Scopolamine-induced spatial memory deficit, Morris water maze (3 mg/kg scopolamine, 8 days); type: in vivo, rat
[2] = test system: patient in need of treatment for long COVID; experiment: Treating long COVID (Example 1), clinical screening assessments; type: in vivo, human; details: patients with long COVID
Method: A Compound of Formula (I), such as Compound 2a or Compound 1a, or a pharmaceutically acceptable salt thereof, is administered orally to a patient in need of treatment for long COVID.
In some embodiments, a patient in need of treatment for long COVID is assessed with ADCS-ADL23. The ADCS-ADL23 (Galasko, 1997) is a 23-item assessment of functional impairment in terms of activities of daily living administered to the support person/caregiver. It comprises 23 questions about the subject's involvement and level of performance across items representing daily living. The questions range from basic to instrumental activities of daily living. Each item is rated from the highest level of independent performance to complete loss. The total score range is from 0 to 78, with lower scores indicating greater functional impairment.
A patient in need of treatment for long COVID is assessed with ERP P300. ERP P300 is a quantitative, unbiased, non-invasive method of recording task-related brain processing speed, elicited by external stimuli, e.g., an oddball auditory stimulus, and is a well-established functional biomarker, particularly of working memory access (Ally, 2006). ERP P300 is characterized by a stereotyped series of voltage deflections occurring after the respective odd tone to be counted, with early features (<100 msec) corresponding to unconscious sensory transmission (auditory cortex, N100), and later features produced by cognitive processing in the ventral attentional network, i.e., P300, referring to the large positive deflection at roughly 300 msec in healthy adults (young or elderly). The P300 latency is sensitive to detecting reduced synaptic transmission related to cognitive decline in AD patients and other dementias (Olichney, 2011).

[3] = test system: Rat hippocampal neurons; experiment: Neurite outgrowth assay; type: cell-based
[4] = test system: Rat hippocampal neurons; experiment: Synaptogenesis assay; type: cell-based; details: for Significant increase in: Synapses: Table 4 study
[5] = test system: Rat primary cortical neuron cultures; type: cell-based; details: for Significance of neuroprotection vs 1 uM LPS: 24 h LPS

Q: Which “Cognitive Improvement” value ([1]; 0.1 mg/kg PO) does the source give for CCC(C)CN1CC2N(C(=O)c3ccc(OC(F)F)cc3)CCC(=O)N2[C@@H](C)C1=O (some centres unmarked) [Compound 2a] here?
A: The value was “− (− indicates post-test p-value above 0.06)”.

Q: What about the “Cognitive Improvement” value ([1]; 1 mg/kg PO) of the same molecule?
A: Its value is “+++ (+++ indicates post-test p-value below 0.01)”.

Q: And the “Cognitive Improvement” value ([1]; 10 mg/kg PO)?
A: Its value is “− (− indicates post-test p-value above 0.06)”.

Q: And the “patient outcome as measured by one or more of the screening assessments” value [2]?
A: The value was “reduces the rate of decline, stabilizes, or improves patient outcome”.

Q: And the safety and tolerability [2]?
A: Its safety and tolerability is “acceptable safety and tolerability”.

Q: And the “neurite length / extension of neurites (in words)” value [3]?
A: The value was “increase neurite length at a concentration of 10 nM”.

Q: And the “Significant increase in: Neurite length” value ([3]; 10 nM, Table 4 study)?
A: The value was “++++ (++++ = p < 0.0001)”.

Q: What about the “synapse counts (in words)” value [4] of the same molecule?
A: The value was “increase synapse counts at all concentrations tested”.

Q: And the “Significant increase in: Synapses” value ([4]; 1 nM)?
A: The value was “++++ (++++ = p < 0.0001)”.

Q: And the “Significant increase in: Synapses” value ([4]; 10 nM)?
A: The value was “++++ (++++ = p < 0.0001)”.

Q: And the “Significant increase in: Synapses” value ([4]; 100 nM)?
A: The value was “++++ (++++ = p < 0.0001)”.

Q: What about the “Significance of neuroprotection vs 1 uM LPS” value (from here on “Significance … vs 1 uM LPS”) ([5]; 0.1 nM) of the same molecule?
A: The value was “+++ (+++ indicates p<0.001)”.

Q: And the “Significance … vs 1 uM LPS” value ([5]; 1 nM)?
A: The value was “+++ (+++ indicates p<0.001)”.

Q: And the “Significance … vs 1 uM LPS” value ([5]; 10 nM)?
A: Its value is “+++ (+++ indicates p<0.001)”.

Q: And the “Significance … vs 1 uM LPS” value ([5]; 100 nM)?
A: Its value is “+++ (+++ indicates p<0.001)”.

Q: And the “Significance … vs 1 uM LPS” value ([5]; 1 μM)?
A: The value was “+++ (+++ indicates p<0.001)”.

Q: What about the “protection of primary neurons from LPS-stimulated inflammatory toxicity” value ([5]; at at least one dose tested) of the same molecule?
A: Its value is “protected primary neurons from LPS-stimulated inflammatory toxicity”.
